Data on 21 molecules can be found in PMC7587979 (Molecules, 2020).

Data set [1] concerns CQ-resistant P. falciparum FcB1/Colombia strain. Nature of the data set: In vitro growth inhibition of P. falciparum ([3H]-hypoxanthine incorporation). To be noted: for fold more active in comparison to the diester compound 17: ratio of IC50 against P. falciparum FcB1 versus 17; for times more active than FSM: ratio of IC50 against P. falciparum FcB1 versus FSM. In kind it is cell-based, Plasmodium falciparum. As for the experimental part: Specifically, IC50 (μM) values for the antiplasmodial activities were determined from four independent experiments as the mean values ± standard deviations. IC50 (μM) values for the cytotoxicity activities were determined from two independent experiments as the mean values ± standard deviations. IC50, SIs (ratio between IC50 (μM) of cytotoxicity/IC50 (μM) of the antiplasmodial activity), and XLogGP3 values for the FSM derivatives, hybrid, and conjugates are reported in Table 1.
The chloroquine-resistant FcB1/Colombia strain of Plasmodium falciparum was maintained in vitro on human erythrocytes in RPMI 1640 medium supplemented by 8% (v/v) heat-inactivated human serum, at 37 °C, under an atmosphere of 3% CO2, 6% O2, and 91% N2 [45]. In vitro drug susceptibility assays were measured by [^3H]-hypoxanthine incorporation. Drug stock solutions were prepared in DMSO. Compounds were serially diluted two-fold with 100 μL of culture medium in 96-well plates. Asynchronous parasite cultures (100 μL, 1% parasitaemia and 1% final hematocrite) were then added to each well and incubated for 24 h at 37 °C prior to the addition of 0.5μCi of [^3H]-hypoxanthine (GE Healthcare, France, 1 to 5Ci·mmol/mL) per well [42]. After a further incubation of 24 h, plates were frozen and thawed. Cell lysates were then collected onto fiberglass filters and counted in a liquid scintillation spectrometer. The growth inhibition for each drug concentration was determined by comparison of the radioactivity incorporated in the treated culture with that in the control culture maintained on the same plate. The IC50 value was obtained from the drug concentration–response curve and the results were expressed as the mean values ± standard deviations determined from several independent experiments. Chloroquine and artemisinin were used as antimalarial drug controls.

Data set [2] relates to human primary fibroblasts (cell line AB943). Briefly: Cytotoxicity evaluation (resazurin) and selectivity index. In kind it is cell-based. To be noted: for SI: SI = IC50 (AB943)/IC50 (P.f. FcB1); for cytotoxicity in words: judged from SI, AB943 fibroblasts. As for the experimental part:
Moreover, their cytotoxicity was measured, as previously reported, upon the primary human fibroblast cell line AB943, which allowed the calculation of their selectivity index (SI).
Specifically, IC50 (μM) values for the antiplasmodial activities were determined from four independent experiments as the mean values ± standard deviations. IC50 (μM) values for the cytotoxicity activities were determined from two independent experiments as the mean values ± standard deviations.
Cytotoxicity evaluation was performed upon human primary fibroblasts (cell line AB943). Assays were realized in 96-well plates in DMEM + Glutamax without phenol red medium (Gibco) containing 25 mM HEPES, pH 7.3, 10% fetal calf serum under a 5% CO2 atmosphere, at 37 °C. After trypsin treatment, AB943 cells were seeded at 2000 cells per well in 100 µL. After 24 h of incubation, drugs diluted in culture medium were added (100 µL per well). Drug stock solutions were prepared in dimethyl sulfoxide (DMSO). The final DMSO concentration in the cultures remained below 1%. Control cultures were constituted of cultures treated with DMSO instead of drug. The cytotoxicity assay was based on the conversion of a redo-sensitive dye (resazurin) to a fluorescent product by viable cells. […] The percentage of inhibition of cell growth was calculated by comparing the fluorescence of cells maintained in the presence of drug to that in the absence of drug.

Details of data set [3]: method as in PMID 10477522, PMID 17887769. To be noted: in vitro and in a mouse model; cited from earlier work.
[4] abbreviates: CQ-resistant P. falciparum FcB1/Colombia strain, mean ± SD of four independent experiments, read-out: IC50.

Where “and” joins values, the source holds several entries; their conditions need not be identical. Equal entries are not always repeated. Where two headings read alike, the source gives them in different places.

Regarding `Nc1ccccc1NCCCP(=O)(O)O` [Compound 35, (3-((2-Aminophenyl)amino)propyl)phosphonic acid], the IC50 in data set [1] (Plasmodium falciparum, FCB1) was above 100000 nM.

The molecule `CCOP(=O)(CCCN(O)C(=O)CCC(=O)N(O)CCCP(=O)(OCC)OCC)OCC` [Compound 18, Tetraethyl-((succinylbis(hydroxyazanediyl))bis (propane-3,1-diyl))bis(phosphonate)] displayed an IC50 in data set [1] (Plasmodium falciparum, FCB1) above 100000 nM.

On to `CCOP(=O)(CCCN(O)C(=O)CCC(=O)Nc1ccccc1N)OCC` [Compound 27, Diethyl(3-(4-((2-aminophenyl)amino)-N-hydroxy-4-oxobutanamido)propyl) phosphonate], for which half-maximal inhibition in data set [1] (Plasmodium falciparum, FCB1) (IC50) was put at 81000 ± 2800 nM.

In the case of `CCOP(=O)(CCCN(O)C(=O)CCC(=O)NCc1ccccc1)OCC` [Compound 30, Diethyl (3-(4-(benzylamino)-N-hydroxy-4-oxobutanamido)propyl) phosphonate], the IC50 in data set [1] (Plasmodium falciparum, FCB1) was above 100000 nM.

With `O=CN(O)CCCP(=O)(O)O` [FSM, fosmidomycin, reference compound], the SI in data set [2] is above 6.6. Moreover, the “fold less active than FR900098” value in data set [1] (P. falciparum FcB1) is 2. For the same molecule, the 50% inhibitory concentration (IC50) in data set [1] (Plasmodium falciparum, CQ-resistant P. falciparum FcB1/Colombia strain, mean ± SD of four independent experiments, read-out: IC50) is 15000 ± 1700 nM.

In the case of `CCOP(=O)(CCCNc1ccccc1N)OCC` [Compound 34, Diethyl (3-((2-aminophenyl)amino)propyl)phosphonate], in data set [2], the SI amounted to 3.7 and the cytotoxicity in words result is recorded as “cytotoxic”. In addition, the IC50 in data set [1] (setting [4]) was 8200 ± 2700 nM.

Molecule `CCOP(=O)(CCCN(O)C(=O)CCC(=O)NCCNc1ccnc2cc(Cl)ccc12)OCC.O=C(O)C(F)(F)F` [Compound 20, 7-Chloro-N-(2-(4-((3-(diethoxyphosphoryl)propyl)(hydroxy)amino)-4oxobutanamido)ethyl)quinolin-4-aminium 2,2,2-trifluoroacetate] came in with an SI in data set [2] of 23.7. The molecule further yielded an IC50 in data set [1] (Plasmodium falciparum, FCB1) of 4200 ± 900 nM. Also, in data set [1], the “fold more active in comparison to the diester compound 17” value is listed as 25–40 and the “times more active than FSM” value is given as 3.5–5.5.

In data set [2], `CCOP(=O)(CCCN(O)C(=O)CCC(=O)N1CCN(c2ccnc3cc(Cl)ccc23)CC1)OCC` [Compound 19, Diethyl (3-(4-(4-(7-chloroquinolin-4-yl)piperazin-1-yl)-N-hydroxy-4-oxobutanamido)propyl) phosphonate] came in with an SI of 23.9. Also, the IC50 in data set [1] (Plasmodium falciparum, FCB1) turned out to be 2700 ± 500 nM. Moreover, in data set [1], the “fold more active in comparison to the diester compound 17” value is given as 25–40 and the “times more active than FSM” value is 3.5–5.5.

In data set [1] (Plasmodium falciparum, FCB1), `CCOP(=O)(CCCN(O)C(=O)CCC(=O)NC(c1ccccc1)c1ccccc1)OCC` [Compound 31, Diethyl(3-(4-(benzhydrylamino)-N-hydroxy-4-oxobutanamido)propyl)phosphonate] registered an IC50 of 44200 ± 9500 nM.

Regarding `CCOP(=O)(CCCN(O)C(=O)CCC(=O)NNC(=O)OC(C)(C)C)OCC` [Compound 26, Tert-butyl 2-(4-((3-(diethoxyphosphoryl)propyl)(hydroxy)amino)-4-oxobutanoyl) hydrazine-1-carboxylate], the IC50 in data set [1] (Plasmodium falciparum, FCB1) was found to be 86000 ± 1400 nM.

Turning to `CCOP(=O)(CCCN(O)C(=O)CCC(=O)Nc1ccc(Cc2ccc(NC(=O)OC(C)(C)C)cc2)cc1)OCC` [Compound 29, Tert-butyl(4-(4-(4-((3-(diethoxyphosphoryl)propyl)(hydroxy)amino)-4-oxobutanamido)benzyl)phenyl) carbamate], in data set [2], the SI worked out at 1.7 and the cytotoxicity in words entry was “cytotoxic”. The same molecule returned a half-maximal inhibitory concentration (IC50) in data set [1] (Plasmodium falciparum, FCB1) of 22700 ± 1900 nM.

Take `CCOP(=O)(CCCN(O)C(C)=O)OCC` [Compound 17]: the IC50 in data set [1] (setting [4]) is above 100000 nM.

Molecule “Diethyl(3-(4-(bis(4-(3-((3S,5aS,6R,8aS,9R,10R,12R)-3,6,9-trimethyldecahydro-12H-3,12-epoxy[1,2]dioxepino[4,3-i]isochromen-10-yl)propanamido)butyl)amino)-N-hydroxy-4-oxobutanamido)propyl)phosphonate [Compound 23]” yielded an SI in data set [2] of 34. Moreover, the IC50 in data set [1] (setting [4]) was 650 ± 260 nM. Further, the “times more active than FSM” value in data set [1] is 23–41.

Turning to “Diethyl(3-(N-hydroxy-4-oxo-4-((4-(3-((3S,5aS,6R,8aS,9R,10R,12R)-3,6,9-trimethyldecahydro-12H-3,12-epoxy[1,2]dioxepino[4,3-i]isochromen-10-yl)propanamido)butyl)(3-(3-((3S,5aS,6R,8aS,9R,10R,12R)-3,6,9-trimethyldecahydro-12H-3,12-epoxy[1,2]dioxepino[4,3-i]isochromen-10-yl)propanamido)propyl)amino) butanamido)propyl)phosphonate [Compound 22]”, the SI in data set [2] is 94 and 94.1. Besides, the IC50 in data set [1] (setting [4]) is 360 ± 90 nM. In addition, the “times more active than FSM” value in data set [1] is recorded as 23–41.

`C[C@@H]1CC[C@H]2[C@@H](C)C(=O)O[C@@H]3O[C@@]4(C)CC[C@@H]1[C@]32OO4` [ART, artemisinin, reference compound]: the IC50 in data set [1] (Plasmodium falciparum, CQ-resistant P. falciparum FcB1/Colombia strain, control drugs, unit (nM), read-out: IC50) was 55 ± 13.6 nM.

In data set [1] (Plasmodium falciparum, FCB1), `CCOP(=O)(CCCN(O)C(=O)CCC(=O)N1CCN(C)CC1)OCC` [Compound 32, Diethyl (3-(N-hydroxy-4-(4-methylpiperazin-1-yl)-4-oxobutanamido)propyl) phosphonate] had a half-maximal inhibitory concentration (IC50) above 100000 nM.

Take `CC(=O)N(O)CCCP(=O)(O)O` [FR900098, reference compound]: the SI in data set [2] is reported as above 14.2. This molecule displayed an IC50 in data set [1] (Plasmodium falciparum, FCB1) of 7000 nM. Besides, in data set [3], the “activity relative to FSM” value is given as “about twice as active as FSM”.

With `CCN(CC)CCCC(C)Nc1ccnc2cc(Cl)ccc12` (stereo not drawn) [CQ, Chloroquine, reference compound], the midpoint of inhibition in data set [1] (Plasmodium falciparum, FCB1), the IC50, lay at 72 ± 7.4 nM.

In data set [1] (Plasmodium falciparum, FCB1), `CCOP(=O)(CCCN(O)C(=O)CC[C@H]1O[C@@H]2O[C@]3(C)CC[C@H]4[C@H](C)CC[C@@H]([C@H]1C)C24OO3)OCC` [Compound 21, Diethyl (3-(N-hydroxy-3-((3S,5aS,6R,8aS,9R,10R,12R)-3,6,9-trimethyldecahydro-12H-3, 12-epoxy[1,2]dioxepino[4,3-i]isochromen-10-yl)propanamido)propyl)phosphonate] yielded an IC50 of 28000 ± 11600 nM.

`CCOP(=O)(CCCN(O)C(=O)CCC(=O)N(Cc1ccccc1)Cc1ccccc1)OCC` [Compound 28, Diethyl (3-(4-(dibenzylamino)-N-hydroxy-4-oxobutanamido)propyl)phosphonate] registered an IC50 in data set [1] (Plasmodium falciparum, FCB1) of 38700 ± 10000 nM.

Turning to `CCOP(=O)(CCCN(O)C(=O)CCC(=O)N1CCNCC1)OCC` [Compound 33, 4-(4-((3-(Diethoxyphosphoryl)propyl)(hydroxy)amino)-4-oxobutanoyl)piperazin-1-ium 2,2,2-trifluoroacetate], the IC50 in data set [1] (Plasmodium falciparum, FCB1) was above 100000 nM.
